# Experimental data as given in ChEMBL document CHEMBL2331100, “Inhibition pattern of sulfamide-related compounds in binding to carbonic anhydrase isoforms I, II, VII, XII and XIV” (Bioorg Med Chem, 2013).
# Columns and labels:
# Carbonic anhydrase 2 = Carbonic anhydrase 2 (Homo sapiens, UniProt P00918); experiment: Inhibition of human carbonic anhydrase 2 preincubated for 15 mins by CO2 hydration stopped-flow assay
# Carbonic anhydrase 12 = Carbonic anhydrase 12 (Homo sapiens, UniProt O43570); experiment: Inhibition of human carbonic anhydrase 12 preincubated for 15 mins by CO2 hydration stopped-flow assay
# Carbonic anhydrase 1 = Carbonic anhydrase 1 (Homo sapiens, UniProt P00915); experiment: Inhibition of human carbonic anhydrase 1 preincubated for 15 mins by CO2 hydration stopped-flow assay
# Carbonic anhydrase 7 = Carbonic anhydrase 7 (Homo sapiens, UniProt P43166); experiment: Inhibition of human carbonic anhydrase 7 preincubated for 15 mins by CO2 hydration stopped-flow assay
# Carbonic anhydrase 14 = Carbonic anhydrase 14 (Homo sapiens, UniProt Q9ULX7); experiment: Inhibition of human carbonic anhydrase 14 preincubated for 15 mins by CO2 hydration stopped-flow assay
# Chain of Carbonic anhydrase 14 (Q9ULX7 whole entry): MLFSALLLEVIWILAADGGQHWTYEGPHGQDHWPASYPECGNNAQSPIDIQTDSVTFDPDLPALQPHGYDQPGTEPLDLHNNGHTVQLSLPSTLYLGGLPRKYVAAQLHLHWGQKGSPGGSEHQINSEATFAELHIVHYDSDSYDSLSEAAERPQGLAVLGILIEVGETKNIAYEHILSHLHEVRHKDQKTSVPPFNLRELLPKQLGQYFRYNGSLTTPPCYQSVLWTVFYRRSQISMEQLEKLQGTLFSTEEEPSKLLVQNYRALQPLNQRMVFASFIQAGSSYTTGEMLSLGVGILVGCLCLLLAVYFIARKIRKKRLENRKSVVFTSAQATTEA
# Chain of Carbonic anhydrase 7 (P43166 whole entry): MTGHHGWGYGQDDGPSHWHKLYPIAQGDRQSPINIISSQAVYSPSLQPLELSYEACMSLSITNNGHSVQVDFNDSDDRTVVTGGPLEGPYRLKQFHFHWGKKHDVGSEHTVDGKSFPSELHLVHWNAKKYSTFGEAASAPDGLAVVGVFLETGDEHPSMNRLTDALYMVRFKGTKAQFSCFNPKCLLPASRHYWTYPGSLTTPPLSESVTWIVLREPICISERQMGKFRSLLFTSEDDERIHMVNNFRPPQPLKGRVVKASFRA
# Chain of Carbonic anhydrase 1 (P00915 whole entry): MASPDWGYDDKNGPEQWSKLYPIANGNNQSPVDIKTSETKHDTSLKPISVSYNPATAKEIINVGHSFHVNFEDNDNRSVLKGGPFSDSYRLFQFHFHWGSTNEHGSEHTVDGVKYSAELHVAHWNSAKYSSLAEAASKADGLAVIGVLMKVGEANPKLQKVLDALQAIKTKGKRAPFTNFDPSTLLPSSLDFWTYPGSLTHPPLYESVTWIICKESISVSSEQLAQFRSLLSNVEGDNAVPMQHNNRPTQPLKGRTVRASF
# Chain of Carbonic anhydrase 12 (O43570 whole entry): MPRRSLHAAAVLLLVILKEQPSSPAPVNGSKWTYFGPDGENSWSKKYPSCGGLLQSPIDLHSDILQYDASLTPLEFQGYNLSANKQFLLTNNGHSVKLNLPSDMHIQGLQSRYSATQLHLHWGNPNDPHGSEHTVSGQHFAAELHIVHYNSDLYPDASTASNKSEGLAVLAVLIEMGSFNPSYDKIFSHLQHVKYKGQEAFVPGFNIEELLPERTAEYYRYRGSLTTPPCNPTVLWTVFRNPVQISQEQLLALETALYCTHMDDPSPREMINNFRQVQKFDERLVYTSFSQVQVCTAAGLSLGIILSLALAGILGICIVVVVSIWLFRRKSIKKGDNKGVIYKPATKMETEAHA
Structure (SMILES),Ki (Carbonic anhydrase 2),Ki (Carbonic anhydrase 12),Ki (Carbonic anhydrase 1),Ki (Carbonic anhydrase 7),Ki (Carbonic anhydrase 14)
O=S(=O)(NCCc1ccccc1)NCCc1ccccc1,> 200 µM,> 200 µM,> 200 µM,> 200 µM,> 200 µM
CCCCNS(=O)(=O)NCCC(=O)OC,> 200 µM,61.2 µM,> 200 µM,> 200 µM,8.37 µM
COC(=O)[C@H](C)NS(=O)(=O)NC(=O)OC(C)(C)C,> 200 µM,54.5 µM,> 200 µM,> 200 µM,5.38 µM
CCCN(CCC)S(=O)(=O)N(CCC)CCC,> 200 µM,> 200 µM,9.35 µM,> 200 µM,
COC(=O)[C@@H](NS(=O)(=O)N[C@H](C(=O)OC)C(C)C)C(C)C,> 200 µM,73 µM,> 200 µM,> 200 µM,
COC(=O)CCNS(=O)(=O)Oc1ccccc1O,> 200 µM,65 µM,88.7 µM,68.7 µM,8.53 µM
CCCCN(CCCC)S(=O)(=O)N(CCCC)CCCC,> 200 µM,> 200 µM,> 200 µM,> 200 µM,> 200 µM
O=S(=O)(NC1CC1)NC1CC1,> 200 µM,0.77 µM,> 200 µM,0.16 µM,8.79 µM
COC(=O)[C@H](C)NS(=O)(=O)N[C@@H](C)C(=O)OC,> 200 µM,> 200 µM,> 200 µM,> 200 µM,7.66 µM
COC(=O)CCNS(=O)(=O)NCCC(=O)OC,> 200 µM,70.8 µM,> 200 µM,> 200 µM,

# Now from value to compound:
Ki (Carbonic anhydrase 2),Ki (Carbonic anhydrase 12),Ki (Carbonic anhydrase 1),Ki (Carbonic anhydrase 7),Ki (Carbonic anhydrase 14),Structure (SMILES)
> 200 µM,0.91 µM,6.88 µM,0.32 µM,,CCCN(CCC)S(=O)(=O)NC(=O)OC(C)(C)C
41.1 µM,65.4 µM,62.2 µM,> 200 µM,8.09 µM,CCCC(CCC)CN(C(=O)OC(C)(C)C)S(=O)(=O)NCCC(=O)OC
66.3 µM,0.69 µM,6.64 µM,0.41 µM,9.79 µM,CCCCNS(=O)(=O)NCCCC [BUTYL(BUTYLSULFAMOYL)AMINE]
0.65 µM,81.5 µM,> 200 µM,0.38 µM,,O=S(=O)(NCc1ccccc1)NCc1ccccc1 [BENZYL(BENZYLSULFAMOYL)AMINE]
2.82 µM,0.73 µM,3.66 µM,0.7 µM,0.82 µM,CCCCCCOS(N)(=O)=O [HEXYL SULFAMATE]
0.12 µM,0.94 µM,0.13 µM,0.3 µM,0.84 µM,NS(=O)(=O)NCc1ccccc1
135 µM,9.1 µM,> 200 µM,0.47 µM,48.8 µM,O=S(=O)(N1CCOCC1)N1CCOCC1
100 µM,0.7 µM,6.64 µM,0.32 µM,9.94 µM,O=S(=O)(NC1CCCCC1)NC1CCCCC1
161 µM,0.89 µM,8.84 µM,0.17 µM,40.4 µM,CC(C)(C)OC(=O)NS(=O)(=O)NCc1ccccc1
55.7 µM,56.3 µM,> 200 µM,> 200 µM,5.92 µM,COC(=O)CNS(=O)(=O)NC(=O)OC(C)(C)C
124 µM,> 200 µM,4.69 µM,> 200 µM,> 200 µM,CCCNS(=O)(=O)NCCC
60.3 µM,3.53 µM,24.9 µM,> 200 µM,7.1 µM,CCCN(CCC)S(N)(=O)=O
1.92 µM,0.89 µM,2.98 µM,4.3 µM,,CCCC(CCC)COS(N)(=O)=O
